Reference: patent US9636311B2, “N,N′-di-1 naphthylguanidine HCl (NAGH) and N,N′-di-p-nitrophenylguanidine HCl (NAD) treatment for stroke at delayed timepoints” (University of South Florida, priority 2012, dated 2017)
Like-named read-outs stand apart in the source and are kept apart here.

Experiments:
microglial cells = assay: Inhibition of microglial migration evoked by ATP; type: cell-based
Experimental: (§1) FIG. 8 is a series of images confirming NAGH acts as a sigma receptor agonist. A) Concentration-response relationship for NAGH (closed circles) and DTG (open circles) inhibition of microglial migration evoked by 100 μM ATP. […] Points represent mean (±SEM) and for all points, n>9. B) Bar graph of the mean (±SEM) number of microglial cells migrating in response to 100 μM ATP when ATP was added alone (DMEM) or in the presence of 100 μM NAGH. Microglia were further exposed to no σ antagonist (Control), or the σ-1 antagonist, BD-1047 (10 μM, BD-1047), or the σ-2 antagonist, rimcazole (10 μM, Rimcazole). Asterisks denote significant difference between DMEM and NAGH within Control, BD-1047 and Rimcazole groups, respectively. Pound symbols indicate significant difference between Control, BD-1047 and Rimcazole within DMEM and NAGH groups, respectively. P<0.05 and n=24 for all groups.
as §1, with “8A illustrates the concentration-response” for “8 is a series of images confirming NAGH acts as a sigma receptor agonist. A) Concentration-response”, “FIG. 8B depicts a bar” for “B) Bar”

rats following MCAO [1] = assay: Spontaneous activity (automated activity monitor) after MCAO; type: in vivo, rat; conditions: 1 month post MCAO
Experimental: MCAO surgeries were performed as described elsewhere (Vendrame M, Cassady C J, Newcomb J, Butler T, Pennypacker K R, Zigova T, et al. Stroke. 2004; 35:2390-2395). Briefly, rats were anesthetized with isoflurane, and the right common carotid and external carotid arteries were exposed using blunt dissection techniques. The vagus nerve was separated from common carotid artery and the external carotid artery was ligated proximally, and transected near the bifurcation. An embolus 40 mm in length (4.0 siliconized monofilament) was inserted into the external carotid artery and fed distally into the origin of the middle cerebral artery (˜25 mm from insertion) through the internal carotid artery. Blood samples were taken and analyzed using an i-STAT handheld analyzer for hemoglobin, hematocrit, ionized calcium, glucose, sodium, potassium, pH, pCO2, HCO3, TCO2, base excess, pO2, and O2. Cerebral blood flow was recorded using a Laser Doppler Monitor (Moor Instruments) to verify occlusion. Afterwards, the embolus was ligated permanently into the vessel and the neck incision was closed. Animals were treated with Ketoprofen IM (10 mg/kg) for three days post-surgery.
For the NAGH studies, vehicle or NAGH were prepared fresh each day. Daily subcutaneous injections (s.c) were administered beginning about 24 hours after MCAO and continued daily to about 72 hours post-surgery (FIG. 1). Animals received a total of 3 injections. A total of 84 animals were randomly assigned into 2 groups: Rats treated with vehicle (40% DMSO in sterile saline, n=42), or rats treated with 0.86 mg/kg NAGH (n=42).
For NAD testing, a total of 32 animals were randomly assigned into 2 groups: Vehicle (n=16), and rat treated with 2.8 mg/kg NAD (n=16). Vehicle consisted of 40% DMSO in sterile saline.
Spontaneous Activity was measured during both the day (1 hr) and night (12 hrs) using an automated activity monitor (VersaMax, Accuscan Instruments, Inc). Spontaneous Activity was measured prior to stroke to establish the normal baseline for each individual animal as well as 1 month after the MCAO. The animals were placed in a Plexiglas box and allowed to roam freely. There is a three dimensional infrared array in this box and when a beam is broken, activity is recorded. A total of sixteen parameters were measured including: Vertical movement, Horizontal movement, and Stereotypic activity were selected for analysis: Horizontal activity (HA), Total distance travelled (TD), Number of movements (MVN), Movement time (MVT), Vertical activity (VA), Number of vertical movements (VMN), vertical time (VT), Stereotype counts (SC), Number of Stereotypy (SN), Stereotypy time (ST), Clockwise rotation (CR), counterclockwise rotation (CCR), Margin distance (MD), Marginal time (MT), Center distance (CD), and Center time (CT). The data are presented as mean+SEM of percent of baseline behavior.

rats following MCAO [2] = assay: Battery of behavioral tests after MCAO (corner, grip, rotorod, step, cylinder); type: in vivo, rat; conditions: 30 days after MCAO
Experimental: After surgery, animals were tested was performed once before surgery and 30 days post-surgery for motor coordination and behavior. All behavioral data are reported as mean+sem.
Rotorod test, which measures motor coordination, was conducted using Omni-rotor Rotorod (Omnitech, Inc). Animals were trained on the accelerating rotorod apparatus for 3 consecutive days before times were collected. Animals were placed on the revolving rod and instrument was set to accelerate to a maximum speed of 40 rpm over 180 seconds. Latency to fall (in seconds) was recorded. This test was performed in triplicate once per day for 3 days.
Rats were held tightly with one forelimb placed on a hard flat table top and then pulled for a length of 1 meter in the direction of the placed forelimb at constant velocity. The test was repeated with the opposite forelimb. This was repeated three times for each forelimb and the percent of contralateral forelimb paw was obtained. The bias was standardized as the absolute number of steps with the contralateral paw minus 100.
The animals were placed in a transparent cylinder about 20 cm in diameter and 30 cm in height with an open top. The number times each paw was placed on the sides of the cylinder was counted a5 minute period. The test was videotaped and a mirror was placed behind the cylinder allowing the experimenter to see the placement of paws when the animal was facing away from the camera.
A 30 degree angle was formed using the edges of two plexiglass boards. The animals were placed halfway into the corner facing the corner and the total number of left and right turns was recorded. A total of 10 trials were conducted and videotaped. A non-lesioned animal turned randomly toward the left or right, while a lesioned animal preferentially turned toward the non-impaired (left) side. Results were reported as the percentage of ipsilateral (injury site, right side) versus contralateral turns.
Motor deficits were assessed using a grip strength meter (Bioseb, # BIO-GS3). […] Grip strength was recorded in Newtons (N). […]

[3] = migration evoked by 100 μM ATP, two-component Langmuir-Hill fit

Cl.N=C(Nc1cccc2ccccc12)Nc1cccc2ccccc12 [NAGH, N,N′-di-1-Naphthylguanidine hydrochloride]
Microglial migration (microglial cells; 100 μM ATP, via σ-1 and σ-2 receptors): blocks microglial migration
Emax, high affinity component (microglial cells; [3]): 0.43
Emax, low affinity component (microglial cells; [3]): 0.57
Hill coefficient, high affinity component (microglial cells; [3]): 2.2
Hill coefficient, low affinity component (microglial cells; [3]): 0.80
IC50 (microglial cells; migration evoked by 100 μM ATP, two-component Langmuir-Hill fit, read-out: IC50, high affinity component): 0.75 µM
IC50 (microglial cells; read-out: IC50, low affinity component): 84 µM
Daytime horizontal activities vs DMSO (rats following MCAO [1]; 1-hr test): no significant differences
Daytime vertical time (VT) vs DMSO (rats following MCAO [1]; 1-hr test, p=0.01): significantly less active
Daytime vertical activity (VA) vs DMSO (rats following MCAO [1]; 1-hr test, p=0.03): significantly less active
Daytime number of vertical movements (VMN) vs DMSO (rats following MCAO [1]; 1-hr test, p=0.15): more active than DMSO group
Daytime stereotypy activity (SC, SN, ST) decrease vs DMSO (rats following MCAO [1]; 1-hr test, p>0.05): failed to reach a statistically significant level
Nighttime horizontal parameters decrease vs DMSO (rats following MCAO [1]; 12-hr test): did not reach statistical significance
Nighttime stereotypic behavior (SC, SN, ST) vs DMSO (rats following MCAO [1]; 12-hr test): did not show any significant difference
Nighttime vertical activity (VA) vs DMSO (rats following MCAO [1]; 12-hr test, p=0.01): significantly less active
Nighttime number of vertical movements (VMN) vs DMSO (rats following MCAO [1]; 12-hr test, p=0.015): significantly more active
Nighttime vertical time (VT) vs DMSO (rats following MCAO [1]; 12-hr test, p=0.03): significantly less active
Overall behavioral data vs vehicle, all tests except EBST (rats following MCAO [2]; NAGH 0.86 mg/kg s.c. x3): no significant differences
Changes in asymmetry on the cylinder test (rats following MCAO [2]; NAGH): failed to gain significance
